Series [1] addresses T1, Androgen Receptor Ligand Binding Domain (AR-LBD) (Rattus norvegicus, UniProt P15207).
T1 sequence (P15207 651-882 limits assumed): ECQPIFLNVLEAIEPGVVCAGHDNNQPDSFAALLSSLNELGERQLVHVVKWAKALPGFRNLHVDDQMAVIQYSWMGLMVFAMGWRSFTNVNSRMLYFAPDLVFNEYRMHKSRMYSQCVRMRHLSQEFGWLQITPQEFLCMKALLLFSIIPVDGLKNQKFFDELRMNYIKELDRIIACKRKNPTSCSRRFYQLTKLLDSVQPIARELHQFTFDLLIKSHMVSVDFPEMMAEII
In words: fluorescence polarization assay for AR-LBD binding. Particulars: bicalutamide positive control.
Text: Binding of bicalutamide with AR-LBD was used as a positive control.
Bicalutamide is used as a positive control.

For series [2], the system named is LNCaP cells. In words: growth inhibition of LNCaP cells. It counts as cell-based, human. More on the design: concentration range of cell growth inhibition: unit not given here. Particulars: presence and absence of R1881. The procedure:
(§1) Culture conditions for LNCaP androgen response studies included use of cells passage 40-90, hormone depleted media containing 4% charcoal-stripped FBS plus 1% non-stripped FBS (F1C4), and synthetic androgen R1881 (methyltrienolone; NEN, Boston, Mass.) at 1 nM for maximal induction of JunD and ROS as described before (17,19,20). For AR-JunD interaction studies in AR-transfected Hep3B cells, R1881 was used at 2 nM in F1C4 medium to maximally induce the AR.
(§2) Graded concentrations of each of the 8-10 designed peptides identified herein are further tested for their ability to inhibit growth of androgen-dependent LNCaP and LAPC-4 cells using a DNA fluorescence assay and androgen-induced ROS using DCFH dye oxidation assay.

Series [3] concerns LNCaP cells. In words: DCF dye oxidation assay, ROS in LNCaP cells. In kind it is cell-based, human.
Text: Described herein are tests for the effect of these three compounds on the androgen-induced ROS production in androgen-dependent LNCaP cells using the DCF dye oxidation assay (see the complete proposal). All data were normalized to the DCF dye fluorescence of control untreated LNCaP cells and expressed as percent of control.
as §1, §2

Another series relates to human CaP cells. In words: androgen-induced ROS production in human CaP cells. It counts as cell-based. To be noted: pretreatment. An excerpt:
(§3) Described herein are molecules, such as for example, N,N′-butadienyl-butanediamine inhibitor of APAO or one of its pro-drugs or analogs, as shown in the figures disclosed herein in this application. […] SSAT promoter sequence, however, contains no AR-binding element (ARE).

The subject of series [4] is TRansgenic Adenocarcinoma in Mouse Prostate (TRAMP) animals. In words: TRAMP mouse model of prostate cancer. It counts as in vivo.
Text: as §3

In the next series the target is AR-JunD immunocomplex (Homo sapiens, UniProt P10275, T878A). To be noted: IP:JunD/WB:AR, 1 nM R1881, 72 h, normalized to β-actin.
Sequence of AR-JunD immunocomplex (P10275 whole entry T878A): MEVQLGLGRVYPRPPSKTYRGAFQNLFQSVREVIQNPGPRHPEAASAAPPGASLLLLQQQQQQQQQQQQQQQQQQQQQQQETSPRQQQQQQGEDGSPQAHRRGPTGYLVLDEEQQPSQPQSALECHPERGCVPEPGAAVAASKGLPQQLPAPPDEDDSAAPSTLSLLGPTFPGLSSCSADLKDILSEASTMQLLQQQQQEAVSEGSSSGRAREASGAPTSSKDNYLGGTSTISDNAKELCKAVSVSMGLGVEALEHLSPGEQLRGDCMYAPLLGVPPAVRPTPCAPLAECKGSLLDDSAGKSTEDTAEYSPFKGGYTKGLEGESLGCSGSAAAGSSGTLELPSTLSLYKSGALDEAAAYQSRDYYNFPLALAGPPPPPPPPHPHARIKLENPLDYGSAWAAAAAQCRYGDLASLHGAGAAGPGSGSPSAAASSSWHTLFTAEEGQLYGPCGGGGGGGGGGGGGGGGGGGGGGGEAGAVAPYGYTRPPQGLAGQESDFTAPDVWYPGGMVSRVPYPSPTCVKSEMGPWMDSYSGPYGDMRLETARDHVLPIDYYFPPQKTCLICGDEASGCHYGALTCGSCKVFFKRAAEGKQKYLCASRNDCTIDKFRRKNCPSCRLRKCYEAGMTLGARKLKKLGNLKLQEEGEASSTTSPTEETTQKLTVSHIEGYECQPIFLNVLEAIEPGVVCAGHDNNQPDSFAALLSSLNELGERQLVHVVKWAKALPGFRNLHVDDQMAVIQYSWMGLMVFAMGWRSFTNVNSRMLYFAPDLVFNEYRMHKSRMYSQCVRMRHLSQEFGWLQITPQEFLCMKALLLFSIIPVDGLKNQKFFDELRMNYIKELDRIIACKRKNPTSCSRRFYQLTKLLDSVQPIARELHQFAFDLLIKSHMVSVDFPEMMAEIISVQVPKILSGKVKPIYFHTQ
Sequence of AR-JunD immunocomplex (P17535 whole entry partner): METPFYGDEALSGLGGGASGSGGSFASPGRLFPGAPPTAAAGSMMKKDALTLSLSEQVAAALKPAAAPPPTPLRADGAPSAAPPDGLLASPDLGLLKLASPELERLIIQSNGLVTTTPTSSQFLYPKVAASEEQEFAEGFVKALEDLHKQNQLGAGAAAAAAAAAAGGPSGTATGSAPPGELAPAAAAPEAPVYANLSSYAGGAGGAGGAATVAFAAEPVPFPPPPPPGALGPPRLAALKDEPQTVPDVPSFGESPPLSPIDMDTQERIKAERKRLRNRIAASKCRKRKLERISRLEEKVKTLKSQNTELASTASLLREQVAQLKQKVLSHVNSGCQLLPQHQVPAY
The subject of another series is SSAT promoter. In words: SSAT promoter luciferase reporter in LNCaP cells. It counts as cell-based, human. To be noted: 1 nM R1881, 72 h. The procedure: The full length (FL) SSAT promoter sequence, kindly provided by Dr. Robert Casero (Johns Hopkins University, Baltimore, Md.), was amplified and cloned into pGL4-basic vector (Promega) with a firefly luciferase reporter gene. This vector, pGL4-SSAT-luc, was transiently transfected into our published (20) JunD-silenced (siJunD) and vector control LNCaP cell lines. Briefly, 5×10^5 siJunD or vector control LNCaP cells were seeded, then transfected one day later with […] pGL4-SSAT-luc DNA construct using Lipofectamine2000 (Invitrogen). After transfection, cells were treated with 1 nM R1881 or left untreated for 72 h, then lysed. Luciferase activity was measured in cell lysates by a luciferase assay system kit (Promega) following the manufacturer-supplied protocol.
The effect of AR activation by androgen on transcriptional activity of full length SSAT promoter and the necessity of JunD for such effect was studied in LNCaP cells stably transfected with either junD silenced (siJunD) or control vector that were then transiently transfected with a full length SSAT promoter-firefly luciferase reporter vector (FLSSAT-luc) followed by androgen treatment (FIGS. 4A,B). Androgen treatment (1 nM R1881) caused a significant>16-fold increase in SSAT promoter activity in vector control LNCaP cells (Control) compared to corresponding untreated cells (FIG. 4A, P=0.03). […]

The subject of the next series is SSAT mRNA. In words: SSAT mRNA by qRT-PCR in LNCaP cells. It counts as cell-based, human. As for the experimental part: Quantitative RT-PCR analysis of SSAT mRNA levels are performed.
The effect of AR activation by androgen on transcriptional activity of full length SSAT promoter and the necessity of JunD for such effect was studied in LNCaP cells stably transfected with either junD silenced (siJunD) or control vector that were then transiently transfected with a full length SSAT promoter-firefly luciferase reporter vector (FLSSAT-luc) followed by androgen treatment (FIGS. 4A,B). Androgen treatment (1 nM R1881) caused a significant>16-fold increase in SSAT promoter activity in vector control LNCaP cells (Control) compared to corresponding untreated cells (FIG. 4A, P=0.03). […] There is an androgen-induced increase in SSAT mRNA (˜10-fold) in siJunD cells, but this increase is much less than that observed in vector control cells (˜25-fold).
A general note: Quantitative PCR measures a nucleic acid by following its amplification.

The target in another series is JunD-AR complex (Homo sapiens, UniProt P10275). To be noted: Hep3B, 2 nM R1881, 48 h.
Sequence of JunD-AR complex (P10275 whole entry): as the sequence (P10275 whole entry T878A) above, with A878T counted along it
Sequence of JunD-AR complex (P17535 whole entry partner): as the sequence (P17535 whole entry partner) above

SMILES strings stand for the structures. Values joined by “and” are separate entries in the source; they are usually repeats but may differ in a detail not shown here. Equal entries are not always repeated. “Also recorded” adds a separate entry of the source. Some results are limits rather than exact numbers.

Description for AR-JunD immunocomplex: For whole cell lysates, LNCaP cells were lysed using modified RIPA buffer containing complete protease inhibitors (Roche Applied Sciences, Indianapolis, Ind.). Nuclear and cytoplasmic fractions were prepared and checked for purity using NE-PER Nuclear and Cytoplasmic extraction reagents (Thermo Scientific, Pierce Biotechnology, Rockford, Ill.) following manufacturer-supplied protocols. For immunoprecipitation, lysates were pre-cleared by incubation with 50% Protein A-agarose slurry (Pierce, Rockford, Ill.). Six g of AR antibody and 500 μl pre-cleared lysate (500 μg total protein) were mixed and rocked overnight at 4° C. The immunocomplex was captured with 100 μl of 50% protein A-agarose slurry, then analyzed by western blotting using JunD antibody. The same immunoprecipitation procedure was repeated for capturing the immunocomplex using JunD antibody and western blotting using AR antibody. Proper controls with IgG and protein A-agarose were run in parallel.
To specifically investigate the effect of androgen, LNCaP cell lysates were prepared after incubation with 1 nM R1881 for 72 h and analyzed for co-immunoprecipitation of AR and JunD.
Description for JunD-AR complex: The two vectors were co-transfected into Hep3B liver carcinoma cells with no AR background.
5×10^5 Hep3B cells were seeded, then one day later co-transfected with 3 g each of Gluc1-AR and JunD-Gluc2 constructs, or transfected with Gluc1-AR or JunD-Gluc2 alone as negative controls using Lipofectamine 2000 reagent (Invitrogen), following the manufacturer-supplied protocol. Two to three hours after transfection, cells were washed and refed DMEM without serum and treated with 2 nM R1881 for 48 h prior to collecting cell lysates. Corresponding untreated cells were used as negative controls.
Gaussia luciferase activity was measured in 25 μl of Hep3B cell lysates from R1881-treated or untreated control cells using a Gaussia luciferase assay kit from New England Biolabs (Ipswich, Mass.), following the manufacturer-supplied protocol.

On to `NN(CC(=O)O)CC(=O)O`, for which the “AR-LBD binding / anti-androgenic properties” value in [1] is recorded as “no AR-LBD binding property; also recorded: no anti-androgenic properties”. Moreover, in the series on LNCaP cells [2], the “concentration of growth inhibition” value was “sub-micromolar”. Moreover, the “reduction of ROS levels in cells not treated with R1881” value in the series with LNCaP cells [3] (LNCaP without R1881) is “weak activity in reducing ROS levels”.
Regarding `O=C(O)CN(CC(=O)O)N1C(=O)c2ccccc2C1=O` [2,2′-(1,3-dioxoisoindolin-2-ylazanediyl)diacetic acid], the “AR-LBD binding / anti-androgenic properties” value in series [1] was “no AR-LBD binding property; also recorded: no anti-androgenic properties”. For the same compound, the “concentration of growth inhibition” value with LNCaP cells [2] is given as “sub-micromolar”.
For `C=C=CCNCCCCNCC=C=C` [N,N′-butadienyl-butanediamine], in the series with human CaP cells, the “androgen-induced ROS production” value is listed as “completely blocks”. Besides, in series [4], the CaP progression entry was “significantly prevents” and the “oxidative stress in the prostate” value is “markedly reduces”.
Consider `C[C@]1(O)CC[C@H]2[C@@H]3CCC4=CC(=O)CCC4=C3C=C[C@@]21C` [R1881, methyltrienolone], for which the “increase of AR-JunD immunocomplex in nuclear fraction” value at AR-JunD immunocomplex is given as “approximately 3 fold”. The “increase in SSAT promoter activity” value with SSAT promoter (siJunD LNCaP) was “small increase”; in the series with SSAT promoter (vector control LNCaP), over 16 fold. Also, the “increase in SSAT mRNA (treated/untreated)” value in the series on SSAT mRNA (JunD silenced (siJunD) LNCaP cells) is about 10 fold; in the series with SSAT mRNA (vector control LNCaP cells) it was ~25 fold and > 25 fold. Moreover, the “increase in reconstituted Gaussia luciferase activity versus untreated cells” value at JunD-AR complex is ~10 fold and > 5 fold.
The melting point is the temperature of the solid-liquid transition. `COC(=O)CN(N)CC(=O)OC` [dimethyl 2,2′-(hydrazine-1,1-diyl)diacetate] came in with a melting point of 166 °C. In addition, the “AR-LBD binding / anti-androgenic properties” value in [1] was “interaction with the AR-LBD that is comparable with that of bicalutamide”. Moreover, the “concentration range of cell growth inhibition” value in the series on LNCaP cells [2] is 1-10. In the series on LNCaP cells [3] (LNCaP with or without R1881), the “effect on ROS levels under any condition” value was “no effect on the ROS levels”.

These data come from patent US9023837B2, “Androgen induced oxidative stress inhibitors” (Colby Pharmaceutical Company, priority 2010, dated 2015).
